Consider two molecules from US20260108503A1, “POLYMERIC MICELLE NANOCARRIERS FOR TARGETED EPIDERMAL DELIVERY OF THE HEDGEHOG PATHWAY INHIBITOR TAK-441” (UNIVERSITÉ DE GENÈ DE GENÈVE, priority 2022, published 2026).

“Also recorded” adds a separate entry of the source.

In data set [1] the target is vismodegib-resistant SMO mutant D473H (Homo sapiens, UniProt Q99835, D473H). The settings on record: cited from earlier work.
Data set [2] is described as follows: Cutaneous delivery and biodistribution in vitro, Franz-type diffusion cells, human skin. Type of data set: in vitro ADME. How it is done:
Human skin samples were obtained shortly after surgery from the Department of Plastic, Aesthetic and Reconstructive Surgery, Geneva University Hospital (Geneva, Switzerland), fatty tissue was removed and the skin was stored at −20° C. The donation was approved by the Central Committee for Ethics in Research (CER: 08-150 (NAC08-051); Geneva University Hospital).
The experiments were performed using standard two-compartment vertical (Franz-type) diffusion cells, (Milian SA; Meyrin, Switzerland) with a cross-sectional area of 2 cm^2. The receptor compartment consisted of 10-mL Dulbecco's phosphate-buffered saline (DPBS) pH 7.4 containing 1% BSA to maintain sink conditions. The receiver compartment was maintained between 32° C.-34° C. For infinite dose conditions, 200 μL of TAK-441 micelle formulation (3 mg/mL) was applied to the skin sample surface (i.e., 300 μg of TAK-441/cm^2 of the skin surface) and for finite dose, 20 μL of micelle formulation (3 mg/mL) was applied (30 μg of TAK-441/cm^2 of the skin surface). […]
(§1) TAK-441 had the least solubility in HPC; this characteristic would minimize the risk of interference of the suspending agent on drug delivery. […] After centrifugation at 10,000 rpm for 15 min, the permeation samples were analyzed by UHPLC-MS/MS. […]
Upon completion of the experiment, a punch was used to separate the skin sample into two parts—an inner disk with a surface area of 0.785 cm^2 and a remaining outer ring with an area of 1.215 cm^2. This outer ring was subsequently cut into small pieces, and TAK-441 deposited in the tissue was extracted by the validated extraction method (section 1.4.5.2) followed by quantification using UHPLC-MS/MS.
The 0.785-cm^2 disks were used to determine the TAK-441 biodistribution as a function of depth in the skin. […] These lamellae enabled the amounts of TAK-441 to be determined as a function of position in the skin, encompassing the stratum corneum, epidermis, and upper dermis, respectively. Each lamella and the remaining dermis were individually extracted in 250-μL methanol for 4 h and TAK-441 was quantified by UHPLC-MS/MS.

The test system of the next data set is HH pathway. The settings on record: NIH3T3 cells, Gli-reporter luciferase; read-out: IC50, inhibition of the hedgehog pathway; cited from earlier work.
The conditions of data set [3]: cited from earlier work.
For a further data set, the system named is Gli1 expression. The settings on record: oral, all doses (50 mg/day to 1600 mg/day); cited from earlier work.
Data set [4] in a line: Cutaneous delivery and biodistribution in vitro, Franz-type diffusion cells, porcine skin. Type of data set: in vitro ADME. The settings on record: 12 h application.
Excerpt: Porcine ears were purchased from a local abattoir (CARRE; Rolle, Switzerland) shortly after sacrifice. After washing under running cold water, skin samples with a thickness of approximately 0.8 mm were carefully harvested from the outer region of the ear using a Zimmer air dermatome (Münsingen, Switzerland). Hair was removed from the skin surface using clippers. Discs corresponding to the permeation area were punched out (Berg & Schmid HK 500; Urdorf, Switzerland). Skin samples were frozen at −20° C. and stored for a maximum period of 3 months. Before the experiment, skin samples were thawed at room temperature and placed for 15 min in 0.9% saline solution for rehydration. […]
as §1
Upon completion of the experiment, a punch was used to separate the skin sample into two parts—an inner disk with a surface area of 0.785 cm^2 and a remaining outer ring with an area of 1.215 cm^2. This outer ring was subsequently cut into small pieces, and TAK-441 deposited in the tissue was extracted by the validated extraction method (section 1.4.5.2) followed by quantification using UHPLC-MS/MS. […]

Data set [5] can be described thus: Determination of TAK-441 content in the micelles (UHPLC-MS/MS). Type of data set: physicochemical. To be noted: incorporation of TAK-441 in TPGS micelles. The protocol: TAK-441 loaded into the micelles was quantified by UHPLC-MS/MS. To ensure complete micelle destruction and release of the incorporated drug, formulations were diluted in acetonitrile and analyzed. The drug content, drug loading, and entrapment efficiency were calculated using equations 1-3: […]

The conditions of data set [6]: cited from earlier work. The source holds these as a separate data set.
For data set [7] the following is noted: human, in vivo; cited from earlier work.

Sequence of vismodegib-resistant SMO mutant D473H (Q99835 28-787 D473H): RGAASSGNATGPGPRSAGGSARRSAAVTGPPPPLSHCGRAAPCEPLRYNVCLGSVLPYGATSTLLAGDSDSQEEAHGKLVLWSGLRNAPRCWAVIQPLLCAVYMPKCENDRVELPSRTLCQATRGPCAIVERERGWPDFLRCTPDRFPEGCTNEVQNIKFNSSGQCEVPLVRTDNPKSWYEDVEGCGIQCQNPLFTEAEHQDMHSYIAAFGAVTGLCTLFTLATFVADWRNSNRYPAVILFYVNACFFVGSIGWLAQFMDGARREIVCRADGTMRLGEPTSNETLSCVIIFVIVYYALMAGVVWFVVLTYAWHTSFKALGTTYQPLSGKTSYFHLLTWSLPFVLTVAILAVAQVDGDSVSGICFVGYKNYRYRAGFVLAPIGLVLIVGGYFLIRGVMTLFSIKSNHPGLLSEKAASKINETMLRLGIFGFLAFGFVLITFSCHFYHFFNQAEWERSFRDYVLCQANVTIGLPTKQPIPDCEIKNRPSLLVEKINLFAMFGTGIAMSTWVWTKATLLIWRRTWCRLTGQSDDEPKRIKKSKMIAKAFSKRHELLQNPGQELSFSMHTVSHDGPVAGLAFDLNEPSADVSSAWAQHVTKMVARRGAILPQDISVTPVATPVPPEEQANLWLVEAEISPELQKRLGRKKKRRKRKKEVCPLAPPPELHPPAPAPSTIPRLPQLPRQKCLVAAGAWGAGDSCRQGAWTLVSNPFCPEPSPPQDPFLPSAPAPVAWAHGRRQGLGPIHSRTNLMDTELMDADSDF

With `CCc1cc2c(c(OCC(F)(F)F)c(C(=O)NC3CCN(C(=O)CO)CC3)n2C)c(=O)n1CC(=O)c1ccccc1` [TAK-441], the “activity against vismodegib-resistant Smoothened receptor D473H mutant” value in data set [1] was “active; also recorded: effective”. Also, the cumulative permeation in data set [2] (conclusion, corresponding to LOD) is given as less than 0.1 pg/cm^2. The “concentrations in the permeation samples (below LOD)” value in [2] (conclusion, permeation samples, UHPLC-MS/MS) is listed as less than 1.29 ng/mL. Moreover, the “transdermal permeation across human skin” value in [2] (human skin, 12 h application) is “below the LOD”. Moreover, the IC50 with HH pathway was 4.4 nM. The “death assessed to be study drug-related” value in data set [3] (cerebral hemorrhage, patient with pancreatic cancer) was “One death”. In addition, in data set [3] (oral, Phase I), the “patients who experienced at least one adverse effect (AE)” value is recorded as “All patients” and the “patients who experienced serious AE” value is “Approximately 35%”. Also, in the data set with Gli1 expression, the “Gli1 expression in skin biopsies” value is listed as “strongly inhibited”. For the same molecule, in data set [4], the “cumulative permeation (receiver compartment below LOD)” value is less than 0.1 pg/cm^2. Further, the “increase of aqueous solubility” value in data set [5] is “approximately 40 fold”. Moreover, in data set [6], the “log P” value is recorded as 2.61.

Consider `Cc1c(C(=O)Nc2ccc(N3C[C@@H](C)O[C@@H](C)C3)nc2)cccc1-c1ccc(OC(F)(F)F)cc1` [sonidegib], for which the “treatment outcome in patients with resistance to vismodegib” value in data set [7] is listed as “ineffective”.

In general, IC50 refers to the concentration that inhibits the measured activity by half. One may read the log P as the decadic logarithm of the partition coefficient of the neutral form, usually between octanol and water.
